Source: patent US8329703B2, “Pyrazole compounds” (XTL Biopharmaceuticals Ltd., priority 2005, dated 2012)
Read-outs that look alike come from different tables or passages of the source.

What was measured:
[1] = system: HCV RNA (HCV Replicon) in Huh-Luc-Neo cells; experiment: HCV Replicon RNA Assay (Taqman quantitative PCR); type: cell-based; conditions: Hepatitis C virus, 48 h, 2 compound treatments over 48 h, no unit printed in table (b307 gives IC50s in μM)
Method: (§1) The identification of inhibitors of HCV replication and/or proliferation has been facilitated by the development of a cell based system to study HCV replication and assay for HCV inhibitors. Inhibition of HCV replication may be performed using the HCV Replicon Assay developed in the laboratories of Bartenschlager (Lohman et al, Science 285, 110-113, 1999) and Rice (Blight et al, Science 290, 1972-1974, 2000). The assay is performed using the Huh-Luc-Neo cell line (Lohman et al, Science 285, 110-113, 1999). Huh-Luc-Neo cells are a human hepatoma cell line (Huh-7) stably expressing a bi-cistronic subgenomic replicon containing the HCV IRES in which the […] of HCV had been deleted and replaced by a construct containing sequences coding for the firefly luciferase reporter gene, the neomycin selectable marker and the EMCV IRES to direct expression of a truncated HCV genome expressing the […] NS3, NS4A, NS4B, NS5A, and NS5B. HCV targets through which inhibitors could act to inhibit replication include the NS3 protease, the helicase/ATPase, NS5A, the NS5B-RNA dependent RNA polymerase, and the HCV IRES.
(§2) Expression of HCV IRES driven luciferase reporter activity and HCV RNA is measured to obtain indirect and direct measures of replication of HCV RNA respectively. Inhibitors of HCV replication and/or proliferation are determined by initially identifying molecules that inhibit expression of the HCV IRES driven luciferase reporter in this HCV Replicon Luciferase Assay. Cell viability assays and control cell based luciferase assays are then run on hits identified in the HCV Replicon Luciferase Assay to eliminate cytoxic compounds and non-specific compounds which act by inhibiting the luciferase enzyme.
(§3) Day 0, Cell Seeding and Compound Treatment: Huh-Luc-Neo Cells are seeded at 25,000/well in an opaque-walled 96 plate with Growth Medium (DMEM phenol red free+PS+2 mM glutamine; 100 μl/well). The compounds to be tested are added to the experimental wells (10 μl/well at 10× assay concentration) and the cells are then incubated (5% CO2, 37° C.).
Day 1, Media Change and Compound Treatment: 24 hours after the initial compound treatment the cell culture media is aspirated from the wells and fresh Growth Medium is added (DMEM phenol red free+PS+2 mM glutamine; 100 μl/well). The compounds to be tested are then added to the appropriate experimental wells (10 μl/well at 10× assay concentration) and the cells are then incubated (5% CO2, 37° C.) for an additional 24 hrs.
Day 2, RNA Isolation and cDNA Synthesis: The cells are washed with 1× Phosphate Buffered Saline (PBS) once.
(§4) Day 3, Quantitative PCR Based Measurement of HCV RNA (Taqman Assay): Quantitative PCR analysis to measure HCV RNA expression from cDNA synthesized on Day 2 is performed using the ABI 9700 HT Sequence Detection System (Applied Biosystems) as previously described (Lohman et al, Science 285, 110-113, 1999). The data is analyzed and IC50s are determined using GraphPad Prism 4 software. Hits validated in the Replicon RNA Assay have IC50s<8.0 μM and show <30% inhibition of Cell Viability at a compound concentration of 50 μM (Cell Titer Glow Assay, cell viability assay conditions identical to HCV Replicon RNA Assay conditions).

[2] = system: Huh-Luc-Neo cells; experiment: Cell Titer-Glo Cell Viability Assay; type: cell-based, human; conditions: for Toxicity % Inhibition at 50 μM (2 doses): inhibition of cell viability at 50 μM, conditions identical to HCV Replicon RNA Assay; for Toxicity % Inhibition at 100 μM (1 dose): inhibition of cell viability at 100 μM, conditions identical to HCV Replicon Luciferase Assay (48 h)
Method: (§5) Day 2, Reagent Preparation and Luciferase Assay: The Bright-Glo Luciferase Assay Buffer (Promega) is thawed and equilibrated to room temperature prior to use. The lyophilized Bright-Glo Luciferase Assay Substrate is equilibrated to room temperature prior to use. 10 ml of Bright-Glo Luciferase Assay Buffer is transferred to 1 vial of Bright-Glo Luciferase Assay Substrate bottle and mixed by gently with a Vortex. 100 ul of Bright-Glo Luciferase Assay reagent (Bright-Glo Luciferase Assay Buffer+Bright-Glo Luciferase Assay Substrate Mixture) is added to each well. The well contents are mixed for 5 min. on an orbital shaker at room temperature to induce cell lysis and the luminescence is then measured using a luminometer. The data is analyzed and IC50s are determined using GraphPad Prism 4 software. Hits validated in the Replicon Luciferase assay have IC50s<8.0 μM and show <30% inhibition of Cell Viability at a compound concentration of 100 μM (Cell Titer Glow Assay, cell viability assay conditions identical to HCV Replicon Luciferase Assay conditions).
as §4
Day 0, Cell Seeding and Compound Treatment: Huh-Luc-Neo Cells are seeded at 25,000/well in an opaque-walled 96 plate with Growth Medium (DMEM phenol red free+PS+2 mM glutamine; 100 ul/well).
Day 2, Reagent Preparation and Assay: The CellTiter-Glo Buffer is thawed and equilibrated to room temperature prior to use. The lyophilized CellTiter-Glo Substrate is equilibrated to room temperature prior to use. 10 ml of CellTiter-Glo Buffer is transferred to 1 vial of CellTiter-Glo Substrate and mixed by gently with a Vortex. 100 μl of CellTiter-Glo Assay reagent (CellTiter-Glo Buffer+CellTiter-Glo Substrate Mixture) is added to each well. The well contents are mixed for 5 min. on an orbital shaker at room temperature to induce cell lysis and the luminescence is then measured using a luminometer.

[3] = system: HCV Replicon (HCV IRES driven luciferase reporter) in Huh-Luc-Neo cells; experiment: HCV Replicon Luciferase Assay; type: cell-based; conditions: Hepatitis C virus, 48 h, no unit printed in table (b301 gives IC50s in μM)
Method: as §1, §2
as §3, with “C.) for 48 h.” for “C.).”
as §5

[4] = Huh-Luc-Neo cells, read-out: Luciferase IC50

SMILES | IC50 [1] [µM] | Toxicity % Inhibition at 50 μM (2 doses) [2] [%] | Toxicity % Inhibition at 100 μM (1 dose) [2] [%] | IC50 [3, 4] [µM] | IC50 ([3]; read-out: Luciferase IC50, Huh-Luc-Neo cells, 48 h) [µM]
Cc1ccc(O)c(-c2nn(C)cc2C#Cc2ccc(N)cc2)c1 [VQ_23714] | 0.1 | 33.4 | 31.5 | 1.16 | 
COc1ccc(O)c(-c2nn(C)cc2C#CC(C)(C)C)c1 [VQ_34145] | 0.82 | 13.1 | 19.8 | 1.87 | 
Cn1cc(C#CC(C)(C)C)c(-c2cc([N+](=O)[O-])ccc2OCc2c(F)cccc2F)n1 [VQ_33518] | 0.42 | 22.8 | 40.4 | 1.85 | 
Cn1cc(C#CC2CC2)c(-c2cc(Br)ccc2O)n1 [VQ_34432] | 0.82 | 8.2 | 45.5 | 11.5 | 
Cn1cc(C#CC(C)(C)C)c(-c2cc([N+](=O)[O-])ccc2NC2CCCCC2)n1 [VQ_36661] | 0.55 | 14.4 | 9.5 | 0.63 | 
Cc1ccc(O)c(-c2nn(C)cc2C#CC2=CCCCC2)c1 [VQ_23307] | 8.1 | 14.8 | 44.8 | 7.25 | 
Cn1cc(-c2ccc(O)c(-c3nn(C)cc3C#CC(C)(C)C)c2)cn1 [VQ_95538] | 1.35 | 6.1 | 24.3 | 9.8 | 
Cn1cc(C#CC(C)(C)C)c(-c2cc(NC(=O)c3ccc(Cl)c(Cl)c3)ccc2O)n1 [VQ_35556] | 0.99 | 13.7 | 28.8 | 9.3 | 
Cn1cc(C#CC(C)(C)C)c(-c2cc(-c3cccc(Cl)c3)ccc2O)n1 [VQ_35543] | 2.16 | 8.2 | 25.3 | 10.1 | 
COc1ccc(C#Cc2cn(C)nc2-c2cc(Cl)c(C)cc2O)cc1 [VQ_23374] | 5.7 | 13.0 | 19.1 | 3.92 | 
Cc1cc(O)c(-c2nn(C)cc2C#CCCCC#N)cc1Cl [VQ_24691] | 0.09 | 28.3 | 21.1 | 5.13 | 
Cn1cc(C#CC(C)(C)C)c(-c2cc(C#Cc3ccc(Cl)cc3)ccc2O)n1 [VQ_34394] | 1.07 | 24.5 | 31.8 | 4.8 | 
Cc1cnc(Nc2ccc([N+](=O)[O-])cc2-c2nn(C)cc2C#CC(C)(C)C)s1 [VQ_36669] | 0.9 | 26.7 | 23.2 | 0.01 | 
Cn1nc(-c2cc(Br)ccc2O)c(C#CC(C)(C)C)c1C#CCCCC#N [VQ_34298] | 3.86 | 23.9 | 18.3 | 5.5 | 
Cn1cc(C#Cc2ccc(N)cc2)c(-c2ccccc2O)n1 [VQ_23708] | 0.7 | 21.8 | 63.8 | 0.55 | 
Cc1ccc(O)c(-c2nn(C)cc2C#CC(C)(C)C)c1 [VQ_23310] | 1.15 | 7.1 | 33.3 | 7.21 | 
C=CCNc1ccc([N+](=O)[O-])cc1-c1nn(C)cc1C#CC(C)(C)C [VQ_36658] | 0.4 | 38.8 | 21.8 | 0.04 | 
Cn1cc(C#CC(C)(C)C)c(-c2cc([N+](=O)[O-])ccc2NCCCNc2ccc([N+](=O)[O-])cc2-c2nn(C)cc2C#CC(C)(C)C)n1 [VQ_36673] | 0.42 | 19.7 | 15.9 |  | 2.09
